Publication PMC10366214, “The anti-Alzheimer potential of novel spiroindolin-1,2-diazepine derivatives as targeted cholinesterase inhibitors with modified substituents” (Scientific Reports, 2023)
Where two headings read alike, the source gives them in different places.

Tests used:
AChE [1] = molecular target: T1, AChE (Homo sapiens, UniProt P22303); assay: biochemical; conditions: for inhibition at 50 µM: read-out: AChE % inhibition at 50 µM
Experimental: (§1) Cholinesterase inhibitory activities of all analogs were evaluated spectrometrically using the modified Ellman method as previously reported[40],[41]. […] The absorbance of each well was measured at 415 nm using a microplate reader. IC50 values and inhibition values were calculated with the software GraphPad Prism as the mean of three independent experiments and are expressed as mean ± SEM.

BChE [2] = molecular target: T2, BChE (Homo sapiens, UniProt P06276); assay: BChE inhibition, modified Ellman method; type: biochemical; conditions: for inhibition at 50 µM: read-out: BChE % inhibition at 50 µM
Experimental: as §1

AChE [3] = molecular target: T1, AChE; conditions: cited from earlier work
BChE [4] = molecular target: T2, BChE; conditions: cited from earlier work
[5] = 50 µM, mean ± S.E of three to five independent experiments
[6] = mean ± S.E of three to five independent experiments, read-out: BChE IC50
[7] = mean ± S.E of three to five independent experiments, read-out: AChE IC50

T2 sequence (P06276 29-602): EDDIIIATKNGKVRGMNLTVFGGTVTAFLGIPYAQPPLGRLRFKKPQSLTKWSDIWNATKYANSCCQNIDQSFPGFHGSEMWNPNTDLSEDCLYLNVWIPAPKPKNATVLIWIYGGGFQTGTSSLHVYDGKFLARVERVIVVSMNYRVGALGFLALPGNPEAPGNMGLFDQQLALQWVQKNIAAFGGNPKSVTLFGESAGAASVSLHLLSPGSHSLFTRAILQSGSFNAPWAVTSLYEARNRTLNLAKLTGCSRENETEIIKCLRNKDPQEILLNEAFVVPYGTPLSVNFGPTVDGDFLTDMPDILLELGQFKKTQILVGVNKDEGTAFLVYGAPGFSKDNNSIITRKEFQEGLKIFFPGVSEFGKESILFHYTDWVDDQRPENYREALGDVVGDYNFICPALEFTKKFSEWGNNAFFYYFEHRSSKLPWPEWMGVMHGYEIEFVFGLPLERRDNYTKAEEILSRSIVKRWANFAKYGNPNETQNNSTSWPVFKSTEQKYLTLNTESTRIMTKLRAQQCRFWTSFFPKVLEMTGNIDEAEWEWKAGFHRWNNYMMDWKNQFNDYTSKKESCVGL
T1 sequence (P22303 32-614): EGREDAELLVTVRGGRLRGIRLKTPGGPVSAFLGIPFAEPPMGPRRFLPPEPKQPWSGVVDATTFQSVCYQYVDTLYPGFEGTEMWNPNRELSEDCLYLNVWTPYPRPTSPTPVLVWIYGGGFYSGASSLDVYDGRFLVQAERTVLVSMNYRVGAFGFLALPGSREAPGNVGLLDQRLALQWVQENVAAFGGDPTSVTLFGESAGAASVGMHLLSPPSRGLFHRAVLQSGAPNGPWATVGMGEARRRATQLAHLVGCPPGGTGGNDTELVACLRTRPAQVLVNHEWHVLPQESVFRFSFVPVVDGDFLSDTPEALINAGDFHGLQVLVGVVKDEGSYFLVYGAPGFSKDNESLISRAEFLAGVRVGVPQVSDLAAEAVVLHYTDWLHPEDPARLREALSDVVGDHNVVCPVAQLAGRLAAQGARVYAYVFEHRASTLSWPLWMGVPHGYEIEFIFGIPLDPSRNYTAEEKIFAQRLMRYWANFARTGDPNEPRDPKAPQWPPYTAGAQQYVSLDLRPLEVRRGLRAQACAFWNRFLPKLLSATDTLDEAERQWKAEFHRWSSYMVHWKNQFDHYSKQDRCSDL

Cc1ccc(NC2=C([N+](=O)[O-])C3(C(=O)Nc4ccc([N+](=O)[O-])cc43)C(C#N)=C(N)NN2)cc1C (stereo not shown) [Compound 5h, 3-amino-7-((3,4-dimethylphenyl)amino)-5',6-dinitro-2'-oxo-1,2-dihydrospiro[[1,2]diazepine-5,3'-indoline]-4-carbonitrile]
inhibition at 50 µM (AChE [1]): 48.6 ± 2.7% | BChE % inhibition at 50 µM (BChE [2]; [5]): Not active

Cc1ccc(NC2=C([N+](=O)[O-])C3(C(=O)Nc4ccc(Cl)cc43)C(C#N)=C(N)NN2)cc1 (stereo not shown) [Compound 5a, 3-amino-5'-chloro-6-nitro-2'-oxo-7-(p-tolylamino)-1,2-dihydrospiro[[1,2]diazepine-5,3'-indoline]-4-carbonitrile]
inhibition at 50 µM (AChE [1]; [5]): 5.37 ± 3.11% | inhibition at 50 µM (BChE [2]; [5]): 18.1 ± 2.88%

N#CC1=C(N)NNC(Nc2cccc(O)c2)=C([N+](=O)[O-])C12C(=O)Nc1c(C(F)(F)F)cccc12 (stereo not shown) [Compound 5u, 3-amino-7-((3-hydroxyphenyl)amino)-6-nitro-2'-oxo-7'-(trifluoromethyl)-1,2-dihydrospiro[[1,2]diazepine-5,3'-indoline]-4-carbonitrile]
inhibition at 50 µM (AChE [1]; [5]): 16.4 ± 0.53% | inhibition at 50 µM (BChE [2]; [5]): 10.4 ± 1.07%

O=C1Nc2ccccc2/C1=C\c1cc[n+](Cc2ccccc2Cl)cc1 [compound B]
IC50 (AChE [3]): 0.00044 µM | fold more potent than donepezil (AChE) (AChE [3]; versus donepezil as reference drug): 32 fold | IC50 (BChE [4]): 1.37 µM

COc1ccc(OC)c(NC2=C([N+](=O)[O-])C3(C(=O)Nc4ccc([N+](=O)[O-])cc43)C(C#N)=C(N)NN2)c1 (stereo not shown) [Compound 5j, 3-amino-7-((2,5-dimethoxyphenyl)amino)-5',6-dinitro-2'-oxo-1,2-dihydrospiro[[1,2]diazepine-5,3'-indoline]-4-carbonitrile]
IC50 (AChE [1]): 20.9 ± 2.96 µM | inhibition at 50 µM (AChE [1]): 61.7 ± 3.77% | IC50 (BChE [2]): 17.4 ± 3.29 µM | inhibition at 50 µM (BChE [2]): 58.4 ± 3.55%

COc1ccc(NC2=C([N+](=O)[O-])C3(C(=O)Nc4ccc(Cl)cc43)C(C#N)=C(N)NN2)cc1 (stereo not shown) [Compound 5b, 3-amino-5'-chloro-7-((4-methoxyphenyl)amino)-6-nitro-2'-oxo-1,2-dihydrospiro[[1,2]diazepine-5,3'-indoline]-4-carbonitrile]
inhibition at 50 µM (AChE [1]; [5]): 42.8 ± 2.15% | inhibition at 50 µM (BChE [2]; [5]): 36.8 ± 2.1%

N#CC1=C(N)NNC(Nc2ccc(Cl)cc2)=C([N+](=O)[O-])C12C(=O)Nc1ccc([N+](=O)[O-])cc12 (stereo not shown) [Compound 5k, 3-amino-7-((4-chlorophenyl)amino)-5',6-dinitro-2'-oxo-1,2-dihydrospiro[[1,2]diazepine-5,3'-indoline]-4-carbonitrile]
inhibition at 50 µM (AChE [1]): 24.6 ± 1.7% | inhibition at 50 µM (BChE [2]): 17.9 ± 1.81%

N#CC1=C(N)NNC(Nc2ccc(O)cc2)=C([N+](=O)[O-])C12C(=O)Nc1c(Br)cc(Br)cc12 (stereo not shown) [Compound 5r, 3-amino-5',7'-dibromo-7-((4-hydroxyphenyl)amino)-6-nitro-2'-oxo-1,2-dihydrospiro[[1,2]diazepine-5,3'-indoline]-4-carbonitrile]
inhibition at 50 µM (AChE [1]; [5]): 46.7 ± 1.92% | inhibition at 50 µM (BChE [2]; [5]): 51.7 ± 1.29% | IC50 (BChE [2]; [6]): 45.7 ± 5.62 µM

COc1ccc(NC2=C([N+](=O)[O-])C3(C(=O)Nc4c(Cl)cc(Cl)cc43)C(C#N)=C(N)NN2)cc1 (stereo not shown) [Compound 5n, 3-amino-5',7'-dichloro-7-((4-methoxyphenyl)amino)-6-nitro-2'-oxo-1,2-dihydrospiro[[1,2]diazepine-5,3'-indoline]-4-carbonitrile]
inhibition at 50 µM (AChE [1]; [5]): 35.4 ± 7.54% | inhibition at 50 µM (BChE [2]; [5]): 46.5 ± 4.77%

N#CC1=C(N)NNC(Nc2cccc(O)c2)=C([N+](=O)[O-])C12C(=O)Nc1c(Br)cc(Br)cc12 (stereo not shown) [Compound 5q, 3-amino-5',7'-dibromo-7-((3-hydroxyphenyl)amino)-6-nitro-2'-oxo-1,2-dihydrospiro[[1,2]diazepine-5,3'-indoline]-4-carbonitrile]
inhibition at 50 µM (AChE [1]; [5]): 63.1 ± 4.43% | IC50 (AChE [1]; [7]): 12 ± 2.33 µM | inhibition at 50 µM (BChE [2]; [5]): 37.1 ± 0.84%

N#CC1=C(N)NNC(Nc2ccc(O)cc2)=C([N+](=O)[O-])C12C(=O)Nc1c(C(F)(F)F)cccc12 (stereo not shown) [Compound 5v, 3-amino-7-((4-hydroxyphenyl)amino)-6-nitro-2'-oxo-7'-(trifluoromethyl)-1,2-dihydrospiro[[1,2]diazepine-5,3'-indoline]-4-carbonitrile]
inhibition at 50 µM (AChE [1]; [5]): 17.7 ± 1.82% | inhibition at 50 µM (BChE [2]; [5]): 13 ± 1.14%

Cc1ccc(NC2=C([N+](=O)[O-])C3(C(=O)Nc4c(Br)cc(Br)cc43)C(C#N)=C(N)NN2)cc1 (stereo not shown) [Compound 5o, 3-amino-5',7'-dibromo-6-nitro-2'-oxo-7-(p-tolylamino)-1,2-dihydrospiro[[1,2]diazepine-5,3'-indoline]-4-carbonitrile]
inhibition at 50 µM (AChE [1]; [5]): 37.6 ± 4.74% | inhibition at 50 µM (BChE [2]; [5]): 14.1 ± 3.7%

Cc1ccccc1NC1=C([N+](=O)[O-])C2(C(=O)Nc3c(C(F)(F)F)cccc32)C(C#N)=C(N)NN1 (stereo not shown) [Compound 5t, 3-amino-6-nitro-2'-oxo-7-(o-tolylamino)-7'-(trifluoromethyl)-1,2-dihydrospiro[[1,2]diazepine-5,3'-indoline]-4-carbonitrile]
inhibition at 50 µM (AChE [1]; [5]): 24.7 ± 1.94% | inhibition at 50 µM (BChE [2]; [5]): 7.31 ± 5.07%

Cc1ccc(NC2=C([N+](=O)[O-])C3(C(=O)Nc4ccc(Cl)cc43)C(C#N)=C(N)NN2)cc1C (stereo not shown) [Compound 5c, 3-amino-5'-chloro-7-((3,4-dimethylphenyl)amino)-6-nitro-2'-oxo-1,2-dihydrospiro[[1,2]diazepine-5,3'-indoline]-4-carbonitrile]
AChE % inhibition at 50 µM (AChE [1]; [5]): Not active | inhibition at 50 µM (BChE [2]; [5]): 37 ± 3.78%

COc1ccc(NC2=C([N+](=O)[O-])C3(C(=O)Nc4c(C(F)(F)F)cccc43)C(C#N)=C(N)NN2)cc1 (stereo not shown) [Compound 5s, 3-amino-7-((4-methoxyphenyl)amino)-6-nitro-2'-oxo-7'-(trifluoromethyl)-1,2-dihydrospiro[[1,2]diazepine-5,3'-indoline]-4-carbonitrile]
inhibition at 50 µM (AChE [1]; [5]): 56 ± 4.39% | IC50 (AChE [1]; [7]): 17.8 ± 2.79 µM | inhibition at 50 µM (BChE [2]; [5]): 13.4 ± 3.46%

Cc1ccc(NC2=C([N+](=O)[O-])C3(C(=O)Nc4ccc([N+](=O)[O-])cc43)C(C#N)=C(N)NN2)cc1 (stereo not shown) [Compound 5g, 3-amino-5',6-dinitro-2'-oxo-7-(p-tolylamino)-1,2-dihydrospiro[[1,2]diazepine-5,3'-indoline]-4-carbonitrile]
IC50 (AChE [1]): 5.88 ± 0.84 µM | inhibition at 50 µM (AChE [1]): 66.3 ± 6.57% | inhibition at 50 µM (BChE [2]): 24.4 ± 2.96%

N#CC1=C(N)NNC(Nc2ccc(Cl)cc2)=C([N+](=O)[O-])C12C(=O)Nc1ccc(Cl)cc12 (stereo not shown) [Compound 5e, 3-amino-5'-chloro-7-((4-chlorophenyl)amino)-6-nitro-2'-oxo-1,2-dihydrospiro[[1,2]diazepine-5,3'-indoline]-4-carbonitrile]
inhibition at 50 µM (AChE [1]; [5]): 13.4 ± 3.34% | BChE % inhibition at 50 µM (BChE [2]; [5]): Not active

COc1ccc(OC)c(NC2=C([N+](=O)[O-])C3(C(=O)Nc4ccc(Cl)cc43)C(C#N)=C(N)NN2)c1 (stereo not shown) [Compound 5d, 3-amino-5'-chloro-7-((2,5-dimethoxyphenyl)amino)-6-nitro-2'-oxo-1,2-dihydrospiro[[1,2]diazepine-5,3'-indoline]-4-carbonitrile]
inhibition at 50 µM (AChE [1]; [5]): 27.8 ± 5.26% | inhibition at 50 µM (BChE [2]; [5]): 19.2 ± 4.07%

Cc1ccccc1NC1=C([N+](=O)[O-])C2(C(=O)Nc3c(Cl)cc(Cl)cc32)C(C#N)=C(N)NN1 (stereo not shown) [Compound 5m, 3-amino-5',7'-dichloro-6-nitro-2'-oxo-7-(o-tolylamino)-1,2-dihydrospiro[[1,2]diazepine-5,3'-indoline]-4-carbonitrile]
inhibition at 50 µM (AChE [1]; [5]): 24.8 ± 5.48% | inhibition at 50 µM (BChE [2]; [5]): 41.9 ± 6.47%

COc1ccc(OC)c(NC2=C([N+](=O)[O-])C3(C(=O)Nc4c(Br)cc(Br)cc43)C(C#N)=C(N)NN2)c1 (stereo not shown) [Compound 5p, 3-amino-5',7'-dibromo-7-((2,5-dimethoxyphenyl)amino)-6-nitro-2'-oxo-1,2-dihydrospiro[[1,2]diazepine-5,3'-indoline]-4-carbonitrile]
inhibition at 50 µM (AChE [1]; [5]): 73.4 ± 4.21% | IC50 (AChE [1]; [7]): 11.3 ± 1.65 µM | inhibition at 50 µM (BChE [2]; [5]): 59.3 ± 3.15% | IC50 (BChE [2]; [6]): 37.9 ± 4.85 µM

Cc1ccc(Cn2cc(COc3cccc(C4Nc5ccccc5NC5=C4C(=O)CC(C)(C)C5)c3)nn2)cc1 (stereo not shown) [compound E]
AChE Inhibition % at 30 μM (AChE [3]; 30 μM): 12.9% | IC50 (BChE [4]): 0.2 ± 0.002 µM

O=C(CC1(O)C(=O)N(Cc2ccccc2)c2ccccc21)c1ccc(Br)cc1Br (stereo not shown) [compound C]
IC50 (AChE [3]): 0.028 ± 0.003 µM | IC50 (BChE [4]): 0.065 ± 0.008 µM

Cc1ccccc1NC1=C([N+](=O)[O-])C2(C(=O)Nc3ccc([N+](=O)[O-])cc32)C(C#N)=C(N)NN1 (stereo not shown) [Compound 5f, 3-amino-5',6-dinitro-2'-oxo-7-(o-tolylamino)-1,2-dihydrospiro[[1,2]diazepine-5,3'-indoline]-4-carbonitrile]
IC50 (AChE [1]): 22.4 ± 2.11 µM | inhibition at 50 µM (AChE [1]): 59.6 ± 6.75% | inhibition at 50 µM (BChE [2]): 23.3 ± 3.97%

COc1ccc(NC2=C([N+](=O)[O-])C3(C(=O)Nc4ccc([N+](=O)[O-])cc43)C(C#N)=C(N)NN2)cc1 (stereo not shown) [Compound 5i, 3-amino-7-((4-methoxyphenyl)amino)-5',6-dinitro-2'-oxo-1,2-dihydrospiro[[1,2]diazepine-5,3'-indoline]-4-carbonitrile]
inhibition at 50 µM (AChE [1]): 46.1 ± 3.38% | inhibition at 50 µM (BChE [2]): 31.2 ± 3.65%
